Target: LRRK2 (Homo sapiens, UniProt Q5S007)
Assay: LRRK2-LRRK2 G2019S-Assay (LanthaScreen Eu Kinase Binding Assay)
Details: 5 nM LRRK2, 10 nM tracer 236, 2 nM EU-Anti-GST antibody, 1 h at RT; read-out: LRRK2 Activities: IC50
Method: In the assay LanthaScreen™ Eu Kinase Binding Assay by Invitrogen Corporation (Carlsbad) the effect of invention of a compound on the phosphorylation is determined by measurement of fluorescence intensity emission ratio based on the binding and displacement of a proprietary, Alexa Fluor® 647-labeled, ATP-competitive kinase inhibitor scaffold (kinase tracer) to the kinase of interest. Binding of the tracer to the kinase is detected using a europium-labeled anti-tag antibody, which binds to the kinase of interest. Simultaneous binding of both the tracer and antibody to the kinase results in a high degree of FRET (fluorescence resonance energy transfer) from the europium (Eu) donor fluorophore to the Alexa Fluor® 647 acceptor fluorophore on the kinase tracer. Binding of an inhibitor to the kinase competes for binding with the tracer, resulting in a loss of FRET. The fluorescence intensity ratio is directly proportional to the amount of peptide phosphorylation.
To the wells of an 384 well small volume plate (Greiner, Frickenhausen) are added (i) the compound under test in 5% DMSO/distilled water (5 μl), (ii) 5 μl of the kinase antibody mixture resulting in a final concentration 5 nM LRRK2 or their mutants, 2 nM EU-Anti-GST antibody in 1× kinase buffer A. The reaction was started with addition of (iii) 5 μl resulting in a final concentration of 10 nM tracer 236. The assay plate was incubated at RT for 1 h and fluorescence intensity readings were collected using a TECAN M1000 at two wavelengths of λex 340/λem 615 nm and λex 340/λem 665 nm with a delay time of 100 μs and an integration time of 200 μs after 60 minutes. The emission ratio was calculated by division of the acceptor/tracer emission ([…]) by the antibody/donor emission ([…]). The inhibitor concentration was plotted versus the emission ratio to determine the IC50 using XLFit 5.0 (IDBS, Guildford) to fit to a sigmoidal dose response curve with a variable slope.

LRRK2, sequence (Q5S007 970-2527 limits assumed): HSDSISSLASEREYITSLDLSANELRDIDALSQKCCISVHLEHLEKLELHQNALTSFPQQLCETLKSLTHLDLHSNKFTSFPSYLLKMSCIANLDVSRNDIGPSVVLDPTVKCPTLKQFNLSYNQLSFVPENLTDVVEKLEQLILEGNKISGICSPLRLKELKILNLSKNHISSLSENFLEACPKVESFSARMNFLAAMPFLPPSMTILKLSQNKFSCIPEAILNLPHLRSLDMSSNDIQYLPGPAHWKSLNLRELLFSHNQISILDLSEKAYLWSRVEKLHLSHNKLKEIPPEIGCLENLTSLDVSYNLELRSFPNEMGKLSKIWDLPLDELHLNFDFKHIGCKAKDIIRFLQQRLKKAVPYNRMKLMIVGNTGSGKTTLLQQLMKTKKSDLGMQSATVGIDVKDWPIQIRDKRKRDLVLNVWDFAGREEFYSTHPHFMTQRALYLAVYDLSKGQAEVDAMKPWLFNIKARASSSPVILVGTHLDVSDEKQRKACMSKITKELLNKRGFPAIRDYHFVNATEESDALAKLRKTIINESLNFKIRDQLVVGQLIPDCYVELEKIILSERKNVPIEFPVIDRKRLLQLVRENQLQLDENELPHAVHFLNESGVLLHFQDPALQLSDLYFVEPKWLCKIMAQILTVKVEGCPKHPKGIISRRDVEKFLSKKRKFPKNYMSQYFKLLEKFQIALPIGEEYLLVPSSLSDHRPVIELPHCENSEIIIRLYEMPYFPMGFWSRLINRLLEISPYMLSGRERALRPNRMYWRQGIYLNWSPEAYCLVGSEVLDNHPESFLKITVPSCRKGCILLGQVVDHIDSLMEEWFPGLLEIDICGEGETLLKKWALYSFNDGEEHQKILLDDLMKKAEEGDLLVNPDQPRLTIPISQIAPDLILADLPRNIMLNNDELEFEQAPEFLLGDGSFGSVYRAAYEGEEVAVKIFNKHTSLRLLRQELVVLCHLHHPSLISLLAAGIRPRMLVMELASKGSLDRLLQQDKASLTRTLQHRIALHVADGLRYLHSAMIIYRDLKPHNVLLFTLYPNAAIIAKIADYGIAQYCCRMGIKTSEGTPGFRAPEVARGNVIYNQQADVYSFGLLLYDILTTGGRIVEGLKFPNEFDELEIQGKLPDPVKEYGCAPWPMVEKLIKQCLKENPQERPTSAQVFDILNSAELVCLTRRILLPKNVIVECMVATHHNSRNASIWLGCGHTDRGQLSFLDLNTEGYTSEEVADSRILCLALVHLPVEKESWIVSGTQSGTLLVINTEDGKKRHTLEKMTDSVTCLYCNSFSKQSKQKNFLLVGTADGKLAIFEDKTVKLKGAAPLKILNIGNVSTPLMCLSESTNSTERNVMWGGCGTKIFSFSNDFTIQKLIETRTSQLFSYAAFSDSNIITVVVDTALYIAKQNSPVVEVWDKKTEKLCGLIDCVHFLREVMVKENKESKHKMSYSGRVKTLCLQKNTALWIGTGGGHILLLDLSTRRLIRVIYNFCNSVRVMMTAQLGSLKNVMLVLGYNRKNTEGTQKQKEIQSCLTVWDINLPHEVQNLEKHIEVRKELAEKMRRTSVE

Q: Which IC50 does the source give for Fc1cc(Nc2nc3cccc(F)c3c3cn[nH]c23)ccc1N1CCOCC1 [Example 2, 9-fluoro-N-(3-fluoro-4-morpholinophenyl)-3H-pyrazolo[3,4-c]quinolin-4-amine] here?
A: 100 to 1000 nM

Q: COc1ccc2nc(Nc3ccc(F)c(S(C)(=O)=O)c3)c3n[nH]cc3c2c1 [Example 4, N-(4-fluoro-3-(methylsulfonyl)phenyl)-8-methoxy-2H-pyrazolo[3,4-c]quinolin-4-amine] was tested. Which IC50 did it give?
A: 100 to 1000 nM

Q: COc1ccc2nc(Nc3cccc(CN(C)C)c3)c3n[nH]cc3c2c1 [Example 5, N-(3-((dimethylamino)methyl)phenyl)-8-methoxy-2H-pyrazolo[3,4-c]quinolin-4-amine] was tested. Which IC50 did it give?
A: 100 to 1000 nM

Q: Which IC50 does the source give for COc1ccc2nc(Nc3cccc(C(=O)N4CCOCC4)c3)c3n[nH]cc3c2c1 [Example 7, (3-((8-methoxy-2H-pyrazolo[3,4-c]quinolin-4-yl)amino)phenyl)(morpholino)methanone] here?
A: 100 to 1000 nM

Q: How did the IC50 turn out when Fc1cccc2nc(Nc3ccc(N4CCOCC4)cc3)c3[nH]ncc3c12 [Example 9, 9-fluoro-N-(4-morpholinophenyl)-3H-pyrazolo[3,4-c]quinolin-4-amine] was run?
A: 10 to 100 nM

Q: For Fc1cccc2nc(Nc3ccc(N4CCOCC4)nc3)c3[nH]ncc3c12 [Example 11, 9-fluoro-N-(6-morpholinopyridin-3-yl)-3H-pyrazolo[3,4-c]quinolin-4-amine], which IC50 is on record?
A: 100 to 1000 nM

Q: Which IC50 does the source give for COc1ccc2nc(Nc3ccc4c(c3)S(=O)(=O)CC4)c3n[nH]cc3c2c1 [Example 12, 6-((8-methoxy-2H-pyrazolo[3,4-c]quinolin-4-yl)amino)-2,3-dihydrobenzo[b]thiophene 1,1-dioxide] here?
A: 100 to 1000 nM

Q: For COc1ccc2nc(Nc3ccc4c(c3)S(=O)(=O)C=C4)c3n[nH]cc3c2c1 [Example 13, 6-((8-methoxy-2H-pyrazolo[3,4-c]quinolin-4-yl)amino)benzo[b]thiophene 1,1-dioxide], which IC50 is on record?
A: 100 to 1000 nM

Q: COc1cccc2nc(Nc3ccc(C(=O)N4CCOCC4)cc3)c3[nH]ncc3c12 [Example 14, (4-((9-methoxy-3H-pyrazolo[3,4-c]quinolin-4-yl)amino)phenyl)(morpholino)methanone] was tested. Which IC50 did it give?
A: 10 to 100 nM

Q: With COc1cccc2nc(Nc3ccc(CN4CCOCC4)cc3)c3[nH]ncc3c12 [Example 15, 9-methoxy-N-(4-(morpholinomethyl)phenyl)-3H-pyrazolo[3,4-c]quinolin-4-amine] as the molecule, how does the IC50 read?
A: 10 to 100 nM

Q: With COc1cc(Nc2nc3cccc(OC)c3c3cn[nH]c23)ccc1N1CCOCC1 [Example 16, 9-methoxy-N-(3-methoxy-4-morpholinophenyl)-3H-pyrazolo[3,4-c]quinolin-4-amine] as the molecule, how does the IC50 read?
A: 10 to 100 nM

Q: Which IC50 does the source give for COc1cccc2nc(Nc3ccc(N4CCOCC4)nc3)c3[nH]ncc3c12 [Example 17, 9-methoxy-N-(6-morpholinopyridin-3-yl)-3H-pyrazolo[3,4-c]quinolin-4-amine] here?
A: 10 to 100 nM

Q: For COc1cccc2nc(Nc3ccc4c(c3)COC4)c3[nH]ncc3c12 [Example 18, N-(1,3-dihydroisobenzofuran-5-yl)-9-methoxy-3H-pyrazolo[3,4-c]quinolin-4-amine], which IC50 is on record?
A: 10 to 100 nM

Q: With COc1cccc2nc(Nc3ccc4c(c3)S(=O)(=O)CC4)c3[nH]ncc3c12 [Example 19, 6-((9-methoxy-3H-pyrazolo[3,4-c]quinolin-4-yl)amino)-2,3-dihydrobenzo[b]thiophene 1,1-dioxide] as the molecule, how does the IC50 read?
A: 10 to 100 nM

Q: Which IC50 does the source give for COc1cccc2nc(Nc3ccc4c(c3)S(=O)(=O)C=C4)c3[nH]ncc3c12 [Example 20, 6-((9-methoxy-3H-pyrazolo[3,4-c]quinolin-4-yl)amino)benzo[b]thiophene 1,1-dioxide] here?
A: 10 to 100 nM

Q: Which IC50 does the source give for COc1ccc2nc(Nc3cccc(CN4CCOCC4)c3)c3n[nH]cc3c2c1 [Example 23, 8-methoxy-N-(3-(morpholinomethyl)phenyl)-2H-pyrazolo[3,4-c]quinolin-4-amine] here?
A: 100 to 1000 nM

Q: With COc1ccc2nc(Nc3cccc(C(C)(C)C#N)c3)c3n[nH]cc3c2c1 [Example 24, 2-(3-((8-methoxy-2H-pyrazolo[3,4-c]quinolin-4-yl)amino)phenyl)-2-methylpropanenitrile] as the molecule, how does the IC50 read?
A: 100 to 1000 nM

Q: COc1ccc2nc(Nc3ccc(N4CCOC4=O)cc3)c3n[nH]cc3c2c1 [Example 25, 3-(4-((8-methoxy-2H-pyrazolo[3,4-c]quinolin-4-yl)amino)phenyl)oxazolidin-2-one] was tested. Which IC50 did it give?
A: 100 to 1000 nM

Q: Which IC50 does the source give for COc1cccc2nc(Nc3cc(C4CC4)[nH]n3)c3n[nH]cc3c12 [Example 26, N-(5-cyclopropyl-1H-pyrazol-3-yl)-9-methoxy-3H-pyrazolo[3,4-c]quinolin-4-amine] here?
A: 10 to 100 nM

Q: How did the IC50 turn out when COc1cccc2nc(Nc3ccc(N4CCOCC4)c(F)c3)c3[nH]ncc3c12 [Example 27, N-(3-fluoro-4-morpholinophenyl)-9-methoxy-3H-pyrazolo[3,4-c]quinolin-4-amine] was run?
A: 10 to 100 nM

Q: How did the IC50 turn out when COc1cccc2nc(Nc3cccc(CN(C)C)c3)c3[nH]ncc3c12 [Example 28, N-(3-((dimethylamino)methyl)phenyl)-9-methoxy-3H-pyrazolo[3,4-c]quinolin-4-amine] was run?
A: 100 to 1000 nM

Q: O=C(c1ccc(Nc2nc3cccc(F)c3c3cn[nH]c23)cc1)N1CCOCC1 [Example 29, (4-((9-fluoro-3H-pyrazolo[3,4-c]quinolin-4-yl)amino)phenyl)(morpholino)methanone] was tested. Which IC50 did it give?
A: 100 to 1000 nM

Q: For Fc1cccc2nc(Nc3ccc(CN4CCOCC4)cc3)c3[nH]ncc3c12 [Example 30, 9-fluoro-N-(4-(morpholinomethyl)phenyl)-3H-pyrazolo[3,4-c]quinolin-4-amine], which IC50 is on record?
A: 100 to 1000 nM

Q: How did the IC50 turn out when COc1cc(Nc2nc3cccc(F)c3c3cn[nH]c23)ccc1N1CCOCC1 [Example 31, 9-fluoro-N-(3-methoxy-4-morpholinophenyl)-3H-pyrazolo[3,4-c]quinolin-4-amine] was run?
A: 100 to 1000 nM

Q: For COc1cccc2nc(Nc3ccc(F)c(S(C)(=O)=O)c3)c3[nH]ncc3c12 [Example 32, N-(4-fluoro-3-(methylsulfonyl)phenyl)-9-methoxy-3H-pyrazolo[3,4-c]quinolin-4-amine], which IC50 is on record?
A: 10 to 100 nM

Q: COc1cccc2nc(Nc3cccc(C(C)(C)C#N)c3)c3[nH]ncc3c12 [Example 33, 2-(3-((9-methoxy-3H-pyrazolo[3,4-c]quinolin-4-yl)amino)phenyl)-2-methylpropanenitrile] was tested. Which IC50 did it give?
A: 100 to 1000 nM

Q: With COc1ccc2nc(Nc3ccc(C(=O)N4CCOCC4)c(F)c3)c3n[nH]cc3c2c1 [Example 34, (2-fluoro-4-((8-methoxy-2H-pyrazolo[3,4-c]quinolin-4-yl)amino)phenyl)(morpholino)methanone] as the molecule, how does the IC50 read?
A: 10 to 100 nM

Q: COc1ccc2nc(Nc3ccc(C(=O)N4CCOCC4)c([N+](=O)[O-])c3)c3n[nH]cc3c2c1 [Example 35, (4-((8-methoxy-2H-pyrazolo[3,4-c]quinolin-4-yl)amino)-2-nitrophenyl)(morpholino)methanone] was tested. Which IC50 did it give?
A: 100 to 1000 nM

Q: COc1ccc2nc(Nc3ccc(-c4ncco4)cc3)c3n[nH]cc3c2c1 [Example 36, 8-methoxy-N-(4-(oxazol-2-yl)phenyl)-2H-pyrazolo[3,4-c]quinolin-4-amine] was tested. Which IC50 did it give?
A: 100 to 1000 nM

Q: Which IC50 does the source give for COc1ccc2nc(Nc3ccc(-c4cnco4)cc3)c3n[nH]cc3c2c1 [Example 37, 8-methoxy-N-(4-(oxazol-5-yl)phenyl)-2H-pyrazolo[3,4-c]quinolin-4-amine] here?
A: < 10 nM

Q: For COc1cccc2nc(Nc3ccc(N4CCN(C(C)(C)C)CC4)cc3)c3[nH]ncc3c12 [Example 38, N-(4-(4-(tert-butyl)piperazin-1-yl)phenyl)-9-methoxy-3H-pyrazolo[3,4-c]quinolin-4-amine], which IC50 is on record?
A: 10 to 100 nM

Q: For COc1cccc2nc(Nc3ccc(C(=O)N4CCC(N5CCN(C)CC5)CC4)cc3)c3[nH]ncc3c12 [Example 39, (4-((9-methoxy-3H-pyrazolo[3,4-c]quinolin-4-yl)amino)phenyl)(4-(4-methylpiperazin-1-yl)piperidin-1-yl)methanone], which IC50 is on record?
A: 10 to 100 nM

Q: COc1cccc2nc(Nc3ccc(N4CCOC4=O)cc3)c3n[nH]cc3c12 [Example 40, 3-(4-((9-methoxy-2H-pyrazolo[3,4-c]quinolin-4-yl)amino)phenyl)oxazolidin-2-one] was tested. Which IC50 did it give?
A: < 10 nM

Q: For CSc1ccc2nc(Nc3ccc(N4CCOCC4)cc3)c3[nH]ncc3c2c1 [Example 43, 8-(methylthio)-N-(4-morpholinophenyl)-3H-pyrazolo[3,4-c]quinolin-4-amine], which IC50 is on record?
A: 10 to 100 nM

Q: For CSc1ccc2nc(Nc3cccc(S(C)(=O)=O)c3)c3[nH]ncc3c2c1 [Example 44, N-(3-(methylsulfonyl)phenyl)-8-(methylthio)-3H-pyrazolo[3,4-c]quinolin-4-amine], which IC50 is on record?
A: 10 to 100 nM

Q: With COc1ccc(Nc2nc3ccc(SC)cc3c3cn[nH]c23)cc1OC [Example 45, N-(3,4-dimethoxyphenyl)-8-(methylthio)-3H-pyrazolo[3,4-c]quinolin-4-amine] as the molecule, how does the IC50 read?
A: 100 to 1000 nM

Q: For Fc1cccc2c1nc(Nc1ccc(N3CCOCC3)cc1)c1[nH]ncc12 [Example 50, 6-fluoro-N-(4-morpholinophenyl)-3H-pyrazolo[3,4-c]quinolin-4-amine], which IC50 is on record?
A: 100 to 1000 nM
